Assay results as given in US9969771B2, “Tetrapeptide having effect of inhibiting VEGF-induced angiogenesis and use thereof” (AVIXGEN INC., priority 2015, dated 2018).
Where a SMILES comes first, the peptide text is derived from it.

Key:
[1] = tested on: FAK; test: Western blot, FAK phosphorylation in VEGF-A-stimulated HUVECs; assay type: cell-based, human; details: HUVECs stimulated with VEGF-A
Method: Cells were lyzed in RIPA buffer, and 50 μg of proteins were isolated by SDS-PAGE and then transferred to a PVDF membrane. The membrane was reacted with an antibody with respect to a target protein for 2 hours. The membrane was washed twice and reacted with a horseradish peroxidase-conjugated antibody, and then an amount of the target proteins was assessed with an enhanced chemiluminescence system.

[2] = tested on: B16F10 mouse melanoma cells; test: Tumor metastasis experiment model (B16F10); assay type: in vivo, C57BL/6J mouse; details: B16F10, 1 mg/kg per day peritoneally, three weeks, versus untreated control mouse
Method: 1×10^5 B16F10 mouse melanoma cells were injected into the caudal vein in the C57BL/6J mouse, and 1 mg/kg (100 μl) of RLYE (SEQ ID NO: 2) was peritoneally injected daily for 3 weeks. The lung was extracted and washed with Dulbecco's PBS, fixed in a 4% paraformaldehyde solution overnight, and the number of tumor metastasis shown on the entire surface of the lung was counted under a stereoscopic microscope.

[3] = tested on: HCT116 human colorectal tumor cells; test: Human colorectal tumor (HCT116) xenograft model; assay type: in vivo, nude mouse
Method: 100 μl each of 2×10^6 B16F1 mouse melanoma cells and 1×10^7 HCT116 human colorectal tumor cells were subcutaneously injected into the left side of a C57BL/6J mouse and a nude mouse. After a tumor volume reached at least 50 to 70 mm3 (taking about 7 days), saline or RLYE (SEQ ID NO: 2) (0.5 or 1.0 mg/kg) was peritoneally injected daily into the mice. A tumor size was two-dimensionally measured with calipers. A tumor volume (mm3) was calculated by a formula of […]. Following homogenization of tumor tissue with PBS and centrifugation (at 12,000×g for 5 min), a hemoglobin-containing supernatant was extracted to be used in analysis with Drabkin's reagent (Sigma). A hemoglobin level was measured by a cyanmethemoglobin method, and the amount of hemoglobin per gram of the tumor was calculated.
Tumor tissue was fixed in 10% formalin, and inserted into paraffin. A slide was prepared from a tissue section, embedded in xylene to remove the paraffin, and rehydrated with 100%, 95%, 80% and 70% ethanol (EtOH) in s stepwise manner. Afterward, the slide was washed with deionized water multiple times at room temperature. To inhibit an intracellular peroxidase activity, the section was reacted in 0.3% hydrogen peroxide-containing methanol for 15 minutes, washed with PBS three times, reacted in 3% goat serum-containing PBS at room temperature for 2 hours, and reacted with a PECAM-1 antibody overnight at 4° C. The tissue section slide was washed with PBS three times, and reacted with a TRITC-conjugated secondary antibody for 1 hour. In addition, the tumor tissue section was also reacted with FITC-isolectin B4 ([…]; Vector Laboratories) for 1 hour. The tissue section was washed with PBS three times, and treated with a Permount solution to make a slide, followed by observation of tumor blood vessels under a fluorescence microscope.

[4] = 0.5 or 1.0 mg/kg per day peritoneally

## CC(C)C[C@H](NC(=O)[C@@H](N)CCCNC(=N)N)C(=O)N[C@@H](Cc1ccc(O)cc1)C(=O)N[C@@H](CCC(=O)O)C(=O)O [RLYE] (H-RLYE-OH; N-terminus and C-terminus assumed)
[1]
  phosphorylation of FAK: inhibited
[2]
  decrease in number of colonies of tumor cells spreading to the lung: 62%
[3]
  invasion of HUVECs into tumor tissue (isolectin B4 / PECAM-1 immunostaining): decreased depending on the amount of treated RLYE
[3]; [4]
  tumor growth: concentration-dependently inhibited
  tumor size: significantly reduced
[3]; compared with a control
  decrease in hemoglobin content in tumor tissue: 41%
